From patent US20200277246A1, “TREATMENT METHOD, COMPOUNDS, AND METHOD OF INCREASING TRPV2 ACTIVITY” (THE FEINSTEIN INSTITUTE FOR MEDICAL RESEARCH, priority 2015, published 2020)

How the values were obtained:
[1] = system: C57BL/6 mice with KRN serum transfer-induced arthritis; test: KRN serum transfer induced arthritis (clinical scores and histology); type: in vivo, mouse
Description: Seven to eight week-old C57BL/6 male mice (Jackson Laboratories) received 200 μl of KRN arthritogenic serum (Ji et al, “Genetic Influences on the End-Stage Effector Phase of Arthritis,” J. Exp. Med. 194 (3):321-330 (2001), which is hereby incorporated by reference in its entirety) (KBN TCR transgenic mice were a kind gift from Christophe Benoist and have been intercrossed with NOD at the Feinstein Institute to generate KRN mice and the arthritogenic serum) intraperitoneal (IP) on day zero (D0) and day 2 (D2). After the onset of clear ankle arthritis (day 3; D3), mice were started on O1821 10 mg/Kg IP BID or control vehicle (DMSO in saline solution). Arthritis severity was scored according to the system reported by Jirholt et al., “Genetic Linkage Analysis of Collagen-Induced Arthritis in the Mouse,” Eur. J. Immunol. 28 (10):3321-3328 (1998), which is hereby incorporated by reference in its entirety, which includes a number of involved joints and a degree of inflammation (swelling/redness) in a scale of 0-12 per mouse per day.
[…] Histology slides were scored without knowledge of treatment and according to a comprehensive scoring system previously reported that includes parameters for synovial hyperplasia, inflammatory cell infiltration, and bone and cartilage erosions (Brenner et al., “The Non-MHC Quantitative Trait Locus Cia10 Contains a Major Arthritis Gene and Regulates Disease Severity, Pannus Formation and Joint Damage,” Arthritis Rheum. 52 (1):322-332 (2005), which is hereby incorporated by reference in its entirety).

[2] = system: cervix carcinoma cell line; test: Cancer cell invasion, cervix carcinoma; type: cell-based
[3] = system: glioblastoma cell line; test: Cancer cell invasion, glioblastoma; type: cell-based
[4] = system: phosphorylated Akt; test: FLS levels of phosphorylated Akt; type: cell-based
[5] = system: p65 NFκB; test: p65 NFκB nuclear location by immunofluorescence in FLS; type: cell-based; settings: 5, 10, 30, and 60 minutes, and 24 hours
[6] = system: Trpv2; settings: cited from earlier work
[7] = system: cannabinoid receptors; settings: cited from earlier work
[8] = molecular target: T1, Trpv2 (Rattus norvegicus, UniProt Q9WUD2); test: Single cell patch clamp of DA FLS; type: cell-based; set-up: endogenous in cells; host or cells: FLS from DA rats with pristane-induced arthritis; settings: perfusion with 30 μM
T1 sequence (Q9WUD2 1-761): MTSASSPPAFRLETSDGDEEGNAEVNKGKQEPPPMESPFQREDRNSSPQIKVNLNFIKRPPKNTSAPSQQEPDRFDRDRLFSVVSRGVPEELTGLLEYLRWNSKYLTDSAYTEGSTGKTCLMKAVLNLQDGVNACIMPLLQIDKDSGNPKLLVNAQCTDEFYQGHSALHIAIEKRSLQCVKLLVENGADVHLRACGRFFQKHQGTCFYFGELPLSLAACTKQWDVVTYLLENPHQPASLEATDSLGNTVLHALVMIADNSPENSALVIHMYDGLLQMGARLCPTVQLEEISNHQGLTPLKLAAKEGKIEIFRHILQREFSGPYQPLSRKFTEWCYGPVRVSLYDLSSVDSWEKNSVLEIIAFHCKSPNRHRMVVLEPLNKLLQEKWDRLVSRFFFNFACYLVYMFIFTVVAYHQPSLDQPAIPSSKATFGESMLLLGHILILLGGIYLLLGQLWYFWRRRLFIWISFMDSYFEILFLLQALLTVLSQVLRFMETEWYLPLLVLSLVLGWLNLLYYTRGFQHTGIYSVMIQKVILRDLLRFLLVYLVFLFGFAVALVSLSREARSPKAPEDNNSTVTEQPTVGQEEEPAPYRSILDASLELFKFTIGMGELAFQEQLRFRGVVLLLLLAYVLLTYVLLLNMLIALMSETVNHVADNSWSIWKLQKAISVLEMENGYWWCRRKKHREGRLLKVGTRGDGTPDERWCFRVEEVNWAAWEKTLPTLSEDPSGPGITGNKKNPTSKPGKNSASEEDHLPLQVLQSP
Description: FLS obtained from DA rats with PIA were plated in culture medium onto glass coverslips and allowed to adhere at 37° C. Recordings were performed in the whole-cell configuration of the patch-clamp technique at room temperature using an EPC10-USB amplifier (HEKA instruments, Bellmore, N.Y.). […] The bath solution contained 132 mM NaCl, 5.4 mM KCl, 1.8 mM CaCl2, 0.8 mM MgCl2, 10 mM HEPES, and 10 mM glucose, at pH 7.4. O1821-activated currents were elicited with a 600 ms ramp from −100 to +100 mV from a holding potential of −107 mV. Addition of O1821 was accomplished by complete bath exchange.

C=C(C)[C@@H]1CCC(C)=C[C@H]1c1c(O)cc(C)cc1O [Compound O1821]
Arthritis severity scores ([1]; 10 mg/Kg BID IP from day 3 to day 9): reductions in arthritis severity scores | Arthritis severity index (ASI), mean±S.D. ([1]; 10 mg/Kg IP BID from day 3): 38.8±6.3 | Lower arthritis severity index (ASI) vs vehicle ([1]; 10 mg/Kg IP BID from day 3): 30% | Histologic parameters (angiogenesis, inflammatory infiltration, pannus formation, loss of proteoglycan) ([1]; ankles at D10, blinded scoring): reduced several histologic parameters | Angiogenesis ([1]; histology, vs control vehicle): marked reduction | Synovial pannus formation ([1]; histology, vs control vehicle): reduced | Synovial tissue inflammatory infiltration ([1]; histology, vs control vehicle): reduced | Cell invasion [2]: significantly reduce cell invasion | Cell invasion [3]: significantly reduce cell invasion | Levels of phosphorylated Akt [4]: did not affect | p65 NFκB activation (nuclear location) [5]: did not change | Stimulation of Trpv2 [6]: stimulates | Stimulation of cannabinoid receptors [7]: does not stimulate | Trpv2 channel current [8]: induced channel opening
